The test system of test [1] is ICR mice, acetic acid writhing pain model. The test is described as follows: mice acetic acid writhing pain model. It is filed as in vivo, mouse. Particulars: 10 mg/kg by gavage, within 30 min; saline group 49 times. The protocol: Male ICR mice, weighed 22-25 g, were fasted but allowed to drink water freely for 2 h before administration. All ICR mice were weighed and grouped randomly, and the number of animals in each group was >10. […] The test compound was IC-1 (the compound prepared in Example 9), and the administration dosages were 5 mg/kg and 10 mg/kg. […] When concave abdomen, stretched trunk and hind claw, and high buttocks appeared, one number point was recorded. […] After administration, the fewer visceral pains in the mice were, the stronger the analgesic effect of the compound was.

The target of test [2] is T1, TRPA1 (Mus musculus, UniProt Q8BLA8).
T1 construct: expressed in transfected cells; host or cells: HEK293
T1 sequence (Q8BLA8 whole entry): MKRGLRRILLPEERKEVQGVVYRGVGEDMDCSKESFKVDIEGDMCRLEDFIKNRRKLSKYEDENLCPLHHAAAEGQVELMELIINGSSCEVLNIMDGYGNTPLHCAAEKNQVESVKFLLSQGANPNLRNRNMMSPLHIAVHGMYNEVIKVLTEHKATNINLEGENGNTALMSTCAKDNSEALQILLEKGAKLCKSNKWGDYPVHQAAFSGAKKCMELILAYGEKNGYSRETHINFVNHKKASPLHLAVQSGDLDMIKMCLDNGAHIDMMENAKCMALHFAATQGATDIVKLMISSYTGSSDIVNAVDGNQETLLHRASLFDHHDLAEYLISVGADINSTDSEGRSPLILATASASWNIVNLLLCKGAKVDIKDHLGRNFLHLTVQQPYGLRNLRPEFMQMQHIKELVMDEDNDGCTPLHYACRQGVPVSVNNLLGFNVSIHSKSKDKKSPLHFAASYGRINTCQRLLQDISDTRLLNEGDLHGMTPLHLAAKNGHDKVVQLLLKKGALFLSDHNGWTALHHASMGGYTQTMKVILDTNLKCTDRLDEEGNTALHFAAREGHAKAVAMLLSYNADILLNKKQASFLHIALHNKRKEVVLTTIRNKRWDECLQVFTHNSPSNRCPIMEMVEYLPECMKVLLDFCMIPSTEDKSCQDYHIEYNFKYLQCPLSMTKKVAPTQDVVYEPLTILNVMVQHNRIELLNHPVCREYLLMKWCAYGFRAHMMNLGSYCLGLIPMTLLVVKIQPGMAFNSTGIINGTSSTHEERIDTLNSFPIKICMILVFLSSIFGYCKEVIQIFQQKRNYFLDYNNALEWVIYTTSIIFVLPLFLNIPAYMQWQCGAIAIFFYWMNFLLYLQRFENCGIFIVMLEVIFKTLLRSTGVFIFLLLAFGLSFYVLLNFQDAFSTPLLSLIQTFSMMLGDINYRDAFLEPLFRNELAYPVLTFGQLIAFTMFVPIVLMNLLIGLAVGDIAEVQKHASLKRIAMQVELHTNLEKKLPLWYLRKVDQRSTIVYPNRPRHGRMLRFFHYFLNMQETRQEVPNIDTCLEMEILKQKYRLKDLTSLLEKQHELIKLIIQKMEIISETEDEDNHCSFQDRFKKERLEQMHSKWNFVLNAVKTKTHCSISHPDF
The test is described as follows: IonWorks Barracuda (IWB) automated patch clamp detection of TRPA1 inhibitory activity. Particulars: for IC50: automated patch clamp (IWB). It is filed as cell-based, mouse (mTRPA1). The protocol: The inhibitory activity of some compounds in the Examples of present invention on transient receptor potential channel protein TRPA1 was tested in this example. The compound of formula A (WO2010075353) was used as a positive control compound: […]
IonWorks Barracuda (IWB) automated patch clamp detection was used as test method: HEK293 cells stably expressing TRPA1 were placed in DMEM medium containing 15 μg/mL Blasticidin S HCl, 200 μg/mL Hygromycin B and 10% FBS in the T175 culture flask, and cultured in 37° C., 5% CO2 incubator. When the cell density reached about 80%, the culture medium was removed, rinsed with phosphate buffered saline (PBS) without calcium and magnesium. 3 mL of Trypsin was added to digest for 2 min, 7 mL of culture medium was added to terminate the digestion. The cells were collected to 15 mL centrifuge tube and centrifuged at 800 rpm for 3 min. After the supernatant was removed, the cells were added to appropriate volume of extracellular fluid for re-suspending, and the cell density was controlled at 2-3×10^6/mL for IWB experiment. Extracellular fluid formulation (in mM): 140 NaCl, 5 KCl, 1 MgCl2, 10 HEPES, 0.5 EGTA, 10 Glucose (pH 7.4); intracellular fluid formulation (in mM): 140 CsCl, 10 HEPES, 5 EGTA, 0.1 CaCl2, 1 MgCl2 (pH 7.2). 28 mg/mL of amphotericin B was freshly prepared with DMSO on the day of experiment, and then final concentration of 0.1 mg/mL was prepared with intracellular fluid.
Population patch clamp (PPC) plate was used in IWB experiment. The entire detection process was automatically carried out by the instrument. Extracellular fluid was added into 384 wells of PPC plate, and 6 µL of the intracellular fluid was added into plenum (under the PPC plate), 6 µL of cell fluid was added for sealing test, and finally the intracellular fluid in plenum was replaced with amphotericin B-containing intracellular fluid to establish a whole-cell recording mode after perforating sealed cells. The sampling frequency for recording TPRA1 current was 10 kHz, the cells were clamped at 0 mV, the voltage stimulation command (channel protocol) was a ramp voltage from −100 mV to +100 mV for 300 ms. This voltage stimulation was applied every 10 s, mTRPA1 current was induced by 300 µM AITC.
Data recording and current amplitude measurement export were carried out by IWB software (version 2.5.3, Molecular Devices Corporation, Union City, Calif.). No statistics was recorded for holes with sealing impedance lower than 20 MΩ. The original current data was corrected by software for leakage reduction. TRPA1 current amplitude was measured at +100 mV. […] If IC50 value of HC030031 exceeded 3 times the average IC50 value previously obtained on each plate, it would be re-tested. The dose-effect curve of compounds and IC50 were fitted and calculated by GraphPad Prism 5.02 (GraphPad Software, San Diego, Calif.).

The subject of test [3] is C57 mice, hot plate pain model. Briefly: mice hot plate pain model. It is filed as in vivo, mouse. The conditions noted are these: 10 mg/kg intraperitoneal, hot plate 55±0.1° C., within 60 minutes. The protocol:
SPF-grade C57 male mice were placed at hot plate with constant 55±0.1° C. […] If the pain reaction of mice was observed, the mice were taken out immediately to prevent mice from scalding. […] The test compounds were freshly prepared on the day of administration. 0.9% NaCl physiological saline solution was prepared as solvent for later use. Appropriate amount of test compounds were added into required volume of physiological saline and fully suspended, and the concentration of the drug compound in preparation was 1 mg/ml. The standard volume of administration to mice was 10 ml/kg (or 0.1 ml/10 g). […] The administration volume was 10 ml/kg. […] Hot plate observation index: the reaction time of mice on the hot plate at 55±0.1° C. (Time latency). Measurement and recording were conducted at 3 h before administration and 15 min, 30 min, and 60 min after administration. Maximum possible effect (MPE) % was used to evaluate analgesic effect of each compound, i.e., MPE %=[(Post drug latency-baseline latency)/(30-baseline latency)]×100. MPE % at different time points was recorded. The higher the value of MPE % was, the stronger the analgesic effect of the compound was.

For test [4], the target named is T2, human TRPA1 channel (Homo sapiens, UniProt O75762).
T2 construct: expressed in transfected cells; host or cells: HEK293
T2 sequence (O75762 whole entry): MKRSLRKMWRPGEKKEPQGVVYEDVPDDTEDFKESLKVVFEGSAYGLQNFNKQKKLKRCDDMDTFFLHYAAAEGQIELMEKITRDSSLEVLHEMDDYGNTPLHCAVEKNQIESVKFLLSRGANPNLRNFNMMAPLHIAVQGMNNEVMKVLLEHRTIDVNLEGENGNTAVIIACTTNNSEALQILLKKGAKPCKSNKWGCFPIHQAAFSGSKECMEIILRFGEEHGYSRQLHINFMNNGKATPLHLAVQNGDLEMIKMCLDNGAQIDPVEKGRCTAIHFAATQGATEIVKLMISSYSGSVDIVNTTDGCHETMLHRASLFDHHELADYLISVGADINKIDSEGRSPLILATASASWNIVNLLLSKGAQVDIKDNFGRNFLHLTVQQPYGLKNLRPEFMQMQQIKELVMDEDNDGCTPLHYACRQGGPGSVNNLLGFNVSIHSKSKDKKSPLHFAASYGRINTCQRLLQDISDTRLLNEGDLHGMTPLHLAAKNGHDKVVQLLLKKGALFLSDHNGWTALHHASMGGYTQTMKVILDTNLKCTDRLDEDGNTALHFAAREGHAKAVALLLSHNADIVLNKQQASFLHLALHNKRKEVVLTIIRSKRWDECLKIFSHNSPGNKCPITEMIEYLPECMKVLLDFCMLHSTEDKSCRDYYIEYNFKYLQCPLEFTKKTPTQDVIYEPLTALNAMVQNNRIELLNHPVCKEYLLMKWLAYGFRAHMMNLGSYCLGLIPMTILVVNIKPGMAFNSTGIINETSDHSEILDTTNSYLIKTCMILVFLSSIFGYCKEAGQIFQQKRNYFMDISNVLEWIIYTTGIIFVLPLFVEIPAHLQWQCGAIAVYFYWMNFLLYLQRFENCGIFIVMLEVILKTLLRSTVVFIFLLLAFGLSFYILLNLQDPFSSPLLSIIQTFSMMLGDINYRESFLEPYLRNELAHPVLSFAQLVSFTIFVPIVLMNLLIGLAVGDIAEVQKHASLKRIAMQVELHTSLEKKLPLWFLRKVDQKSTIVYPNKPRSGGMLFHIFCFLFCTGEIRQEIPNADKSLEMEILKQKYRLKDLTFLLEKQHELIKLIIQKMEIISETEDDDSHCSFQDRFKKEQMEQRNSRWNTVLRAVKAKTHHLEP
The test is described as follows: manual patch clamp detection of TRPA1 inhibitory activity. It is filed as cell-based. The protocol: The HEK293 cell line stably expressing human TRPA1 channel was placed in T75 culture flask with DMEM medium containing 15 μg/mL Blasticidin S HCl, 200 μg/mL Hygromycin B and 10% FBS, and cultured in incubator at 37° C. and 5% CO2. When the cell density reached about 80%, the culture medium was removed, the residue was rinsed with phosphate buffered saline (PBS) without calcium and magnesium. 2 mL of trypsin was added to digest for 2 minutes, and 8 mL of culture medium was added to terminate the digestion. The cells were collected to 15 mL centrifuge tube and centrifuged at 800 rpm for 3 min. After the supernatant was removed, an appropriate volume of extracellular fluid was added to re-suspend the cells.
In manual patch clamp detection, HEKA system (Patch Master software) was used together with EPC-10 amplifier to record the whole cell current of TRPA1 stably transfected cell line at room temperature. intracellular fluid formulation for whole cell recording was as follows (mM): 140 CsCl, 10 HEPES, 5 EGTA, 0.1 CaCl2, 1 MgCl2 (pH 7.2, osmotic pressure 295-300 mOsm); Ca^2+-free extracellular fluid formulation for recording was as follows (mM): 140 NaCl, 5 KCl, 0.5 EGTA, 1 MgCl2, 10 Glucose, 10 HEPES (pH 7.4, osmotic pressure 300-310 mOsm). Glass microelectrode resistance used for patch clamp recording was 2-4 MΩ, the sampling frequency was 10 kHz, the filter frequency was 2.9 kHz, the cell clamp was 0 mV, and the voltage stimulation command (channel protocol) was a linear voltage from −100 mV to +100 mV for 300 ms, then restored to 0 mV clamping potential. The recording was performed every 2 s. The hTRPA1 current was induced by 100 μM AITC. To ensure the accuracy of current recording, the series resistance was used for 60% compensation during recording.
Data recording and current amplitude measurement export were completed by Patch Master software. Cells with sealing impedance lower than 500 MΩ, w were not included in the statistics. The original current data were corrected by software for leakage reduction, and the hTRPA1 current amplitude was measured at +100 mV. The compound dose-effect curve and IC50 were fitted and calculated by GraphPad Prism 5.02 (GraphPad Software, San Diego, Calif.).
On the technique in general: The patch-clamp technique gives a direct electrical read-out from membranes.

Test [5] has as its system C57BL/6 mice, formalin pain model. The test is described as follows: mice formalin pain model (Example 44). Type of test: in vivo, mouse. Particulars: 20 mg/kg intraperitoneal, phase I (0-10 min) and phase II (10-60 min), vs saline group. As to the method:
Before the start of experiment, the mice were allowed to adapt to the experimental environment for 72 h without fasting. The test drug was administrated by intraperitoneal injection at a dose of 20 mg/kg, and then the mice were placed in a transparent, ventilated plexiglass cylinder for 1 h, and then 20 μl of 4% formalin solution was injected into the left hind plantar of mice of each group by microinjector. The claw pain response of mice was real-time recorded by miniature camera. The number of times of lifting (1 min/time), shaking (2 min/time), and licking (3 min/time) left claw and the time length of licking left claw were used as indicators of pain response, the cumulative scoring and licking time in two stages of 0-10 min (phase I, acute pain phase) and 10-60 min (phase II, inflammatory pain phase) were observed and recorded, and the statistical analysis was conducted.

Setting [6] is: HEK293 cells stably expressing TRPA1, AITC-induced current at +100 mV, read-out: IC50 (μM) on TRPA1 in the patch clamp detection test.

Broadly, the IC50 is the midpoint of a concentration-inhibition curve.

Like-named read-outs stand apart in the source and are kept apart here. Some results are limits rather than exact numbers.

In the case of `CN1[C@H]2C[C@H](OC(=O)[C@H](CO)c3ccccc3)C[C@@H]1[C@@H](O)C2` [anisodamine, reference compound], the “number of appearance of writhing reaction” value in test [1] was 27 times.

In the case of `CNCC[C@H](Oc1cccc2ccoc12)c1ccco1` [Compound IC-4, (S)-3-(benzofuran-7-yloxy)-N-methyl-3-(furan-2-yl)propyl-1-amine], the half-maximal inhibitory concentration (IC50) in test [2] (setting [6]) is 1 to 5 µM; in test [2] (read-out: IC50 on TRPA1), below 5 µM.

As to `NCC[C@H](Oc1cccc2ccoc12)c1ccsc1` [Compound IC-26, (S)-3(benzofuran-7-yloxy)-3-(thiophen-3-yl) propyl-1-amine], the IC50 in test [2] (setting [6]) was in the range of 5 to 10 µM.

Take `CNCC[C@H](Oc1cccc2ccoc12)c1cnco1` [Compound IC-29, (S)-3-(benzofuran-7-yloxy)-N-methyl-3-(oxazol-5-yl)propyl-1-amine]: the IC50 in test [2] (setting [6]) was in the range of 5 to 10 µM.

For the compound `CNCC[C@H](Oc1cccc2ccoc12)c1ccoc1` [Compound IC-3, (S)-3-(benzofuran-7-yloxy)-N-methyl-3-(furan-3-yl)propyl-1-amine], the results for the half-inhibitory concentration (IC50) in test [2] (setting [6]) and in test [2] (read-out: IC50 on TRPA1) were 1 to 5 µM and below 5 µM, respectively.

Consider `CNCC[C@H](Oc1cccc2ccoc12)c1ccsc1` [Compound IC-2, (S)-3-(benzofuran-7-yloxy)-N-methyl-3-(thiophen-3-yl)propyl-1-amine], for which the half-maximal inhibitory concentration (IC50) in test [2] (setting [6]) is 5 to 10 µM.

`NCC[C@H](Oc1cccc2ccoc12)c1ccco1` [Compound IC-25, (S)-3-(benzofuran-7-yloxy)-3-(furan-2-yl) propyl-1-amine]: the half-maximal inhibitory concentration (IC50) in test [2] (setting [6]) was in the range of 1 to 5 µM.

Regarding `CN(C)CC[C@H](Oc1cccc2ccoc12)c1cccs1` [Compound IC-8, (S)-3-(benzofuran-7-yloxy)-N,N-dimethyl-3-(thiophen-2-yl)propyl-1-amine], the IC50 in test [2] (setting [6]) was 1 to 5 µM; in test [2] (read-out: IC50 on TRPA1), below 5 µM.

Consider `NCC[C@H](Oc1cccc2ccoc12)c1ccoc1` [Compound IC-24, (S)-3-(benzofuran-7-yloxy)-3-(furan-3-yl)propyl-1-amine], for which the IC50 in test [2] (setting [6]) was 1 to 5 µM; in test [2] (read-out: IC50 on TRPA1) it was below 5 µM.

Turning to `COc1ccc2c(c1)c(CC(=O)O)c(C)n2C(=O)c1ccc(Cl)cc1` [indomethacin, reference compound], in test [1], the “number of appearance of writhing reaction” value is 28 times.

Regarding `CNCC[C@H](Oc1cccc2ccccc12)c1cccs1` [Duloxetine (R configuration), Duloxetine, reference compound], the results for the IC50 in test [2] (setting [6]) and in test [2] (read-out: IC50 on TRPA1) were 20 to 50 µM and 48.5 µM, respectively.

Take `NCC[C@H](Oc1cccc2ccoc12)c1cccs1` [Compound IC-23, (S)-3-(benzofuran-7-yloxy)-3-(thiophen-2-yl) propyl-1-amine]: in test [3], the “analgesic effect (MPE %) on hot plate” value is “very potent analgesic effect”. The concentration for half-maximal inhibition (IC50) in test [2] (setting [6]) is 1 to 5 µM; in test [2] (read-out: IC50 on TRPA1) it was below 5 µM.

For `CNCC[C@H](Oc1cccc2c1CCC2)c1cccs1` [Compound IC-10, (S)-3-(2,3-dihydro-1H-inden-4-yloxy)-N-methyl-3-(2-thienyl)propyl-1-amine], the 50% inhibitory concentration (IC50) in test [4] (HEK293 stably expressing human TRPA1, 100 μM AITC, +100 mV) is 1.12 µM; in test [2] (setting [6]), 5 to 10 µM. Also, the “ratio of IC50 of S configuration of duloxetine to IC50 of the compound, manual patch clamp” value in test [4] (manual patch clamp) was determined as 3.9. The “analgesic effect (MPE %) on hot plate” value in test [3] was “stronger than those of gabapentin and duloxetine”. For the same compound, the “analgesic activity, licking time” value in test [5] is on record as “almost completely inhibited licking claw behavior caused by pain”. For the same compound, the “the IC50 of compound C1/the IC50 of compound IC-10” value in test [2] (TRPA1, automated patch clamp) is “about 2.5 fold”.

These data come from US20220119375A1, “3-ARYLOXY-3-ARYL-PROPYLAMINE COMPOUND AND USES THEREOF” (Zhangzhou Pien Tze Huang Pharmaceutical Co., Ltd., priority 2018, published 2022).
